Test results taken from patent publication US20170315129A1, “CANCER CELL DETECTION METHOD USING LIVING BODY-DERIVED CELLS OF BIOLOGICAL ORIGIN” (Hirosaki University, priority 2014, published 2017).
“Also recorded” adds a separate entry of the source.

Legend:
pancreatic cancer cells = settings: in vitro culture cells such as pancreatic cancer cells or cancer-bearing mice; cited from earlier work
[1] = test system: ascites cells obtained during an operation of a patient with endometrial cancer (endometrioid adenocarcinoma); assay: Live-cell fluorescence imaging of ascites cells, endometrial cancer patient, with later Papanicolaou staining (Example 2); type: cell-based, human
Protocol: Immediately after the start of laparotomy for endometrial cancer (endometrioid adenocarcinoma), the peritoneal cavity was washed with physiological saline in the same manner as in Example 1 to obtain a peritoneal washing, which was then added to a 50 mL centrifuge tube having 5 mL of the Hanks solution in advance. The resulting ascitic fluid suspension was centrifuged at […] for 2 minutes at room temperature, and the supernatant was removed by decantation. Subsequently, 30 mL of a commercially available solution of ammonium chloride for hemolysis was added, and allowed to stand for 2 minutes, and then centrifuged at 1500 G for 2 minutes at room temperature, and the supernatant was then removed by decantation. Some of the resulting pellet was set aside for cytodiagnosis tests at the hospital's pathology department, and the rest was further divided into 2 portions, each of which was dispersed into 40 mL of a KRB solution in 50 mL centrifuge tubes, and stored at room temperature an a dark place until application of fLG on the next day. […]
Observation and image acquisition were performed about 22 hours after obtaining ascites cells using the same instruments as in Example 1. […] Subsequently, a bright-field image and fluorescence images of the target cells were obtained using a high-power lens, and positional information on the stage was registered using a software dedicated for BZ-X700. […]

[2] = test system: ascites cells obtained during an operation of a patient with endometrial cancer; assay: Live-cell fluorescence imaging of ascites cells, endometrial cancer patient, reactive mesothelial cells (Example 3); type: cell-based, human; settings: cell population in region of interest, apparent reactive mesothelial cells on Papanicolaou staining; 100 μM 2-NBDLG and 20 μM 2TRLG; FIG. 5A
Protocol: Immediately after the start of laparotomy for endometrial cancer, the peritoneal cavity was washed with physiological saline in the same manner as in Example 1 to obtain a peritoneal washing, which was then added to a 50 mL centrifuge tube having 5 mL of the Hanks solution in advance. The resulting ascitic fluid suspension was centrifuged at 1500 G for 2 minutes at room temperature, and then the supernatant was removed with a dropper. Some of the resulting pellet was set aside for cytodiagnosis tests at the hospital's pathology department, and the rest was dispersed into 15 mL of a KRB solution in a 15 mL centrifuge tube, then again centrifuged at 1500 G for 2 minutes at room temperature, and the supernatant was removed with a dropper. The pellet primarily includes red blood cells, and a large amount of red blood cells may obscure the target cells, interfering with microscopy. […]
An ×2 fLG solution prepared as in Example 1 (2-1) in an amount of 1 mL was added and mixed, and the cells was exposed to fLG for 5 minutes in a 37° C. water bath. […] Bright field image: high sensitivity, transmitted illumination intensity 25, aperture stop 20%, exposure time 1/500 s • Green fluorescence image: high sensitivity, excitation light intensity 100%, exposure time 1/4 s • Red fluorescence image: high sensitivity, excitation light intensity 10%, exposure time 1/10 s • (Experiment Results)

O=C[C@@H](Nc1ccc([N+](=O)[O-])c2nonc12)[C@H](O)[C@@H](O)[C@@H](O)CO [2-NBDLG, 2-[N-(7-nitrobenz-2-oxa-1,3-diazole-4-yl)amino]-2-deoxy-L-glucose]
uptake into cancer cells (pancreatic cancer cells): specific uptake
intracellular localisation of 2-NBDLG uptake ([1]; Cluster 1, FIG. 4A): taken up into the cytoplasmic portion except for the nucleus
fluorescence from 2-NBDLG (green wavelength region) ([1]; two cancer-cell clusters (left cluster and Cluster 1), 100 μM 2-NBDLG and 20 μM 2TRLG, fLG applied about 20 hours after sampling, FIG. 3B, 4D): show fluorescence; also recorded: positive
fluorescence from 2-NBDLG (green wavelength region) [2]: shows fluorescence
